Experimental data taken from patent US11597752B2, “Peptides and combination of peptides and scaffolds thereof for use in immunotherapy against colorectal carcinoma (CRC) and other cancers” (priority 2015, dated 2023).

Assays:
HLA-A*02:01 = HLA-A*02:01 (Homo sapiens, UniProt P04439, D140Y/D185E/D98H/E176V/E277Q/G131W/G231S/I119V/I121R/I166T/I218V/L300P/L318F/N151K/N90K/P208A/P217A/Q86G/Q94H/R138H/R169H/T345S); test: MHC binding assay (UV-ligand exchange, beta2m ELISA, peptide exchange yield); conditions: binding to HLA-A*02:01, β2m ELISA
Summary of the method: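 Exchange yield, UV-ligand exchange: 100-fold diluted samples on streptavidin plates, 1 h at 37 °C; HRP anti-β2m 1 h at 37 °C; TMB read at 450 nm.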

[1] = system: CD8+ T-cells of healthy HLA-A*02 donors; test: In vitro immunogenicity: T-cell priming with aAPCs loaded with peptide/MHC and anti-CD28, multimer staining; assay type: cell-based, human; conditions: for Wells positive [%]: HLA-A*02 restricted peptides, among evaluable wells, Table 10B; for donors: percentage of positive donors; for donors / wells: in vitro immunogenicity, Table 10A; for wells: percentage of positive wells
Description: In order to obtain information regarding the immunogenicity of the TUMAPs of the present invention, the inventors performed investigations using an in vitro T-cell priming assay based on repeated stimulations of CD8+ T-cells with artificial antigen presenting cells (aAPCs) loaded with peptide/MHC complexes and anti-CD28 antibody.
In order to perform in vitro stimulations by artificial antigen presenting cells loaded with peptide-MHC complex (pMHC) and anti-CD28 antibody, the inventors first isolated CD8+ T-cells from fresh HLA-A*02 leukapheresis products via positive selection using CD8 microbeads (Miltenyi Biotec, Bergisch-Gladbach, Germany) of healthy donors obtained from the University clinics Mannheim, Germany, after informed consent.
PBMCs and isolated CD8+ lymphocytes were incubated in T-cell medium (TCM) until use consisting of RPMI-Glutamax (Invitrogen, Karlsruhe, Germany) supplemented with 10% heat inactivated human AB serum (PAN-Biotech, Aidenbach, Germany), 100 U/ml Penicillin/100 μg/ml Streptomycin (Cambrex, Cologne, Germany), 1 mM sodium pyruvate (CC Pro, Oberdorla, Germany), 20 μg/ml Gentamycin (Cambrex). 2.5 ng/ml IL-7 (PromoCell, Heidelberg, Germany) and 10 U/ml IL-2 (Novartis Pharma, Nürnberg, Germany) were also added to the TCM at this step.
Generation of pMHC/anti-CD28 coated beads, T-cell stimulations and readout was performed in a highly defined in vitro system using four different pMHC molecules per stimulation condition and 8 different pMHC molecules per readout condition.
The purified co-stimulatory mouse IgG2a anti human CD28 Ab 9.3 (Jung et al., 1987) was chemically biotinylated using Sulfo-N-hydroxysuccinimidobiotin as recommended by the manufacturer (Perbio, Bonn, Germany). Beads used were 5.6 μm diameter streptavidin coated polystyrene particles (Bangs Laboratories, Illinois, USA).
800.000 beads/200 μl were coated in 96-well plates in the presence of 4×12.5 ng different biotin-pMHC, washed and 600 ng biotin anti-CD28 were added subsequently in a volume of 200 μl. Stimulations were initiated in 96-well plates by co-incubating 1×10^6 CD8+ T-cells with 2×10^6 washed coated beads in 200 μl TCM supplemented with 5 ng/ml IL-12 (PromoCell) for 3 days at 37° C. Half of the medium was then exchanged by fresh TCM supplemented with 80 U/ml IL-2 and incubating was continued for 4 days at 37° C. This stimulation cycle was performed for a total of three times. For the pMHC multimer readout using 8 different pMHC molecules per condition, a two-dimensional combinatorial coding approach was used as previously described (Andersen et al., 2012) with minor modifications encompassing coupling to 5 different fluorochromes. Finally, multimeric analyses were performed by staining the cells with Live/dead near IR dye (Invitrogen, Karlsruhe, Germany), CD8-FITC antibody clone SK1 (BD, Heidelberg, Germany) and fluorescent pMHC multimers. For analysis, a BD LSRII SORP cytometer equipped with appropriate lasers and filters was used. Peptide specific cells were calculated as percentage of total CD8+ cells. Evaluation of multimeric analysis was done using the FlowJo software (Tree Star, Oregon, USA). In vitro priming of specific multimer+CD8+ lymphocytes was detected by comparing to negative control stimulations.

Substance | Peptide exchange (MHC class I binding score, peptide exchange yield) (HLA-A*02:01) | Wells positive [%] [1] | donors [1] | wells [1]
47 (KLYERCEVV; listed as Homo sapiens) [compound 47] | “++” (≥20% = ++) | “+” (<20% = +) |  | 
127 (RLAELTVDEFLA; listed as Homo sapiens) [compound 127] | “+++” (≥50 = +++) | “+” (<20% = +) |  | 
11 (YLFEKTFNM; listed as Homo sapiens) [compound 11] | “+++” (≥50 = +++) | “+” (<20% = +) |  | 
219 (FLDEKGRCV; listed as Homo sapiens) [compound 219] |  |  | +++ (50%-69% = +++) | ++ (20%-49% = ++)
150 (RLADLEALKV; listed as Homo sapiens) [compound 150] | “+++” (≥50 = +++) | “++” (20%-49% = ++) |  | 
59 (LLTDNVVKL; listed as Homo sapiens) [compound 59] | “+++” (≥50 = +++) | “+” (<20% = +) |  | 
123 (KTLERSYLL; listed as Homo sapiens) [compound 123] | “++” (≥20% = ++) | “+” (<20% = +) |  | 
124 (RVLPPSALQSV; listed as Homo sapiens) [compound 124] | “+++” (≥50 = +++) | “+” (<20% = +) |  | 
10 (RMYNKIFAI; listed as Homo sapiens) [compound 10] | “+++” (≥50 = +++) | “++++” (>=70% = ++++) |  | 
7 (YLTRHLAVL; listed as Homo sapiens) [compound 7] | “++” (≥20% = ++) | “+” (<20% = +) |  | 
38 (SLAPTPVSA; listed as Homo sapiens) [compound 38] | “++” (≥20% = ++) | “+” (<20% = +) |  | 
220 (KMDPVAYRV; listed as Homo sapiens) [compound 220] |  |  | ++++ (>=70% = ++++) | +++ (50%-69% = +++)
132 (ALLNAILHSA; listed as Homo sapiens) [compound 132] | “+++” (≥50 = +++) | “+” (<20% = +) |  | 
18 (FLSSLKGGLL; listed as Homo sapiens) [compound 18] | “+++” (≥50 = +++) | “+” (<20% = +) |  | 
133 (RTFEKIEEV; listed as Homo sapiens) [compound 133] | “++” (≥20% = ++) | “+” (<20% = +) |  | 
21 (VLIDHRWVL; listed as Homo sapiens) [compound 21] | “+++” (≥50 = +++) | “+” (<20% = +) |  | 
142 (SLVQRVETI; listed as Homo sapiens) [compound 142] | “+++” (≥50 = +++) | “+” (<20% = +) |  | 
12 (ALVQGILERV; listed as Homo sapiens) [compound 12] | “+++” (≥50 = +++) | “++++” (>=70% = ++++) |  | 
37 (GLFAGLGGAGA; listed as Homo sapiens) [compound 37] | “+++” (≥50 = +++) | “+” (<20% = +) |  | 
64 (KTLGKLWRL; listed as Homo sapiens) [compound 64] | “++” (≥20% = ++) | “++++” (>=70% = ++++) |  | 
9 (ILDDHLSRV; listed as Homo sapiens) [compound 9] | “++” (≥20% = ++) | “+” (<20% = +) |  | 
2 (ALLPRYFFL; listed as Homo sapiens) [compound 2] | “++” (≥20% = ++) | “++++” (>=70% = ++++) |  | 
1 (ALIKQLFEA; listed as Homo sapiens) [compound 1] | “+++” (≥50 = +++) | “+” (<20% = +) |  | 
141 (AVIEHLERL; listed as Homo sapiens) [compound 141] | “++++” (≥75% = ++++) | “+” (<20% = +) |  | 
42 (SILDDSFKL; listed as Homo sapiens) [compound 42] | “++++” (≥75% = ++++) | “+” (<20% = +) |  | 
